Where two headings read alike, the source gives them in different places.

The source of these data is patent publication US11447505B1, “Pyrrolo[2,3-b]pyridine compounds and their use in the treatment of cancer” (priority 2017, dated 2022).

Assay [1] has as its target MRCKα (Homo sapiens (Human), UniProt Q5VT25). Put plainly: MRCKα kinase assay (IMAP fluorescence polarization). Type of assay: biochemical. The text has this: (§1) MRCKα, MRCKβ, ROCK1 and ROCK2 Kinase Assays
The target of assay [2] is T1, ROCK1 (Homo sapiens (Human), UniProt Q13464). Put plainly: biochemical.
T1 sequence (Q13464 2-1354 limits assumed): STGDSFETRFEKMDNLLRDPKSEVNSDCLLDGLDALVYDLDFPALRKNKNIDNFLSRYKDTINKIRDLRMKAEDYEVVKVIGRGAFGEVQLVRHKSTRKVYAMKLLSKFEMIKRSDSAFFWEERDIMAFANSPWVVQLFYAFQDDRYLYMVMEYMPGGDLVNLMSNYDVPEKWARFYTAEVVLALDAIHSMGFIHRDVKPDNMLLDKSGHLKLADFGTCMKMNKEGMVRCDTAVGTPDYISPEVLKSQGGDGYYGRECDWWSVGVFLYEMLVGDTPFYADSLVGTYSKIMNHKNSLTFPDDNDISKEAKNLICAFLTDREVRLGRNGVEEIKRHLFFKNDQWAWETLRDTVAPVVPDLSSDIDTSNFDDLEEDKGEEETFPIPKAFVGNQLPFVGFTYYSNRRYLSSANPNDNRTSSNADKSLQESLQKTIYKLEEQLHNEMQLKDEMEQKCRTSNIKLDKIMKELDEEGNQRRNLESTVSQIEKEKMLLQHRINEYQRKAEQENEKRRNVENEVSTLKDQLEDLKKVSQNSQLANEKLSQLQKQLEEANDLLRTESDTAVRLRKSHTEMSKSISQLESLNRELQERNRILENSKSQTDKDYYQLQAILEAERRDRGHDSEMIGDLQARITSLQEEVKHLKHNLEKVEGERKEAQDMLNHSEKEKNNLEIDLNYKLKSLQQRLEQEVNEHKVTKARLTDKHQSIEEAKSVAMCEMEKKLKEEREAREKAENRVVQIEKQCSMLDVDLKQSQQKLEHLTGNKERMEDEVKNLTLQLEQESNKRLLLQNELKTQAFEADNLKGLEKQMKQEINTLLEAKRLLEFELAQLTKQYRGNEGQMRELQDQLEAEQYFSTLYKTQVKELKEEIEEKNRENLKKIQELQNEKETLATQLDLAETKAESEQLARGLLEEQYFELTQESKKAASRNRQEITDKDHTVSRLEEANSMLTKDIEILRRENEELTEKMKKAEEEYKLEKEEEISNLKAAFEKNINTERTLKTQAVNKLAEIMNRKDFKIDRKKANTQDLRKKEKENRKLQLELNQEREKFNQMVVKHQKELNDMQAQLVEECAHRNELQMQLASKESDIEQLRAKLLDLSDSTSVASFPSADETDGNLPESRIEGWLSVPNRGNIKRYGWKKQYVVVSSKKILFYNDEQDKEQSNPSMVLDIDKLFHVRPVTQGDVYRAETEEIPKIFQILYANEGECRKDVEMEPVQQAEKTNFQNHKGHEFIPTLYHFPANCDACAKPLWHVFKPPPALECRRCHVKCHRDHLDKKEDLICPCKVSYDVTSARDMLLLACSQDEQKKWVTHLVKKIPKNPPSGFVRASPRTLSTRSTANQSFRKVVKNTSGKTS
For assay [3], the target named is T1, ROCK1. Nature of the assay: ROCK1 cellular assay (pMLC T18/S19 immunoblot, MDA-MB-231 cells with doxycycline inducible kinase domain). The format is cell-based. The procedure:
(§2) MRCKβ, ROCK1 and ROCK2 Cellular Assays
(§3) MDA-MB-231 cells expressing doxycycline inducible ROCK1, ROCK2 or MRCKβ kinase domains were plated at 1.1×10^5 cells per well of a 12 well plate. After 24 hours, cells were treated with 1 μg/ml doxycycline for 18 hours to induce kinase domain expression and then tested over a suitable concentration range with compounds of the invention for 60 minutes. Cells were then washed with PBS and lysed with Tris-SDS lysis Buffer (50 mM Tris-HCl pH7.4, 0.5% (v/v) SDS, 1×PhosStop Inhibitors (04 906 837 001; Roche) and 1×Complete Protease Inhibitors (04 693 124 001; Roche)). Whole cell lysates were clarified by passing through QIAshredder spin columns, separated by SDS-PAGE, and quantitative immunoblotting performed using a LI-COR Odyssey IR scanner to determine pMLC (T18/S19) and α-Tubulin levels.

Assay [4] addresses ROCK2 (Homo sapiens (Human), UniProt O75116). Nature of the assay: ROCK2 kinase assay (IMAP fluorescence polarization). The format is biochemical.
Description: MRCKα, MRCKβ, ROCK1 and ROCK2 assays were performed using an IMAP fluorescence polarization assay format (Molecular Devices Inc.). 8-12 nM of each kinase (Life Technologies) was incubated for 60 min at room temperature with 100 nM FAM-S6-ribosomal protein derived peptide (synthesized by Alta Biosciences, University of Birmingham UK) in the presence of 1 μM ATP and 0.5 mM MgCl2 in 20 mM Tris buffer (pH 7.4) containing 0.01% Tween-20 and 1 mM DTT (MRCKα and β); or 1 μM ATP, 10 mM MgCl2 in 20 mM Tris buffer (pH 7.5) containing 0.25 mM EGTA 0.01% Triton X-100 and 1 mM DTT (ROCK1 and ROCK2). Typically, dose response analyses were performed over concentration ranges from 0.005-100 μM. Reactions were stopped by adding 2 assay volumes of 0.25% (v/v) IMAP binding reagent in 1×IMAP binding buffer A (Molecular Devices). After 30 min incubation to allow binding reagent to bind phosphorylated peptide, fluorescence polarization was measured on a Tecan Saphire^2 plate reader at excitation (470 nm) and emission (530 nm) wavelengths.
Assay [5] addresses T2, MRCKβ (Homo sapiens (Human), UniProt Q9Y5S2). Put plainly: MRCKβ cellular assay (pMLC T18/S19 immunoblot, MDA-MB-231 cells with doxycycline inducible kinase domain). Type of assay: cell-based. The procedure: as §2, §3
Assay [6] deals with T2, MRCKβ. Put plainly: MRCKβ kinase assay (IMAP fluorescence polarization). The format is biochemical.
Excerpt: as §1

Assay [7] has as its target T1, ROCK1. As to conditions: read-out: ROCK1 Average Ki; 1 μM ATP.
[8] abbreviates: 1 μM ATP, read-out: MRCK-a Average Ki.
Where [9] appears, read: MDA-MB-231 cells, doxycycline inducible kinase domain, 60 minutes, pMLC (T18/S19), read-out: Cellular assay - ROCK1 inhibition MEAN.
Where [10] appears, read: 1 μM ATP, read-out: ROCK2 Average Ki.
[11] abbreviates: MDA-MB-231 cells, doxycycline inducible kinase domain, 60 minutes, pMLC (T18/S19), read-out: Cellular assay - MRCK-b inhibition MEAN.
The mark [12] stands for this setting: 1 μM ATP, read-out: MRCK-B Average Ki.

Sequence of MRCKα (Q5VT25 whole entry): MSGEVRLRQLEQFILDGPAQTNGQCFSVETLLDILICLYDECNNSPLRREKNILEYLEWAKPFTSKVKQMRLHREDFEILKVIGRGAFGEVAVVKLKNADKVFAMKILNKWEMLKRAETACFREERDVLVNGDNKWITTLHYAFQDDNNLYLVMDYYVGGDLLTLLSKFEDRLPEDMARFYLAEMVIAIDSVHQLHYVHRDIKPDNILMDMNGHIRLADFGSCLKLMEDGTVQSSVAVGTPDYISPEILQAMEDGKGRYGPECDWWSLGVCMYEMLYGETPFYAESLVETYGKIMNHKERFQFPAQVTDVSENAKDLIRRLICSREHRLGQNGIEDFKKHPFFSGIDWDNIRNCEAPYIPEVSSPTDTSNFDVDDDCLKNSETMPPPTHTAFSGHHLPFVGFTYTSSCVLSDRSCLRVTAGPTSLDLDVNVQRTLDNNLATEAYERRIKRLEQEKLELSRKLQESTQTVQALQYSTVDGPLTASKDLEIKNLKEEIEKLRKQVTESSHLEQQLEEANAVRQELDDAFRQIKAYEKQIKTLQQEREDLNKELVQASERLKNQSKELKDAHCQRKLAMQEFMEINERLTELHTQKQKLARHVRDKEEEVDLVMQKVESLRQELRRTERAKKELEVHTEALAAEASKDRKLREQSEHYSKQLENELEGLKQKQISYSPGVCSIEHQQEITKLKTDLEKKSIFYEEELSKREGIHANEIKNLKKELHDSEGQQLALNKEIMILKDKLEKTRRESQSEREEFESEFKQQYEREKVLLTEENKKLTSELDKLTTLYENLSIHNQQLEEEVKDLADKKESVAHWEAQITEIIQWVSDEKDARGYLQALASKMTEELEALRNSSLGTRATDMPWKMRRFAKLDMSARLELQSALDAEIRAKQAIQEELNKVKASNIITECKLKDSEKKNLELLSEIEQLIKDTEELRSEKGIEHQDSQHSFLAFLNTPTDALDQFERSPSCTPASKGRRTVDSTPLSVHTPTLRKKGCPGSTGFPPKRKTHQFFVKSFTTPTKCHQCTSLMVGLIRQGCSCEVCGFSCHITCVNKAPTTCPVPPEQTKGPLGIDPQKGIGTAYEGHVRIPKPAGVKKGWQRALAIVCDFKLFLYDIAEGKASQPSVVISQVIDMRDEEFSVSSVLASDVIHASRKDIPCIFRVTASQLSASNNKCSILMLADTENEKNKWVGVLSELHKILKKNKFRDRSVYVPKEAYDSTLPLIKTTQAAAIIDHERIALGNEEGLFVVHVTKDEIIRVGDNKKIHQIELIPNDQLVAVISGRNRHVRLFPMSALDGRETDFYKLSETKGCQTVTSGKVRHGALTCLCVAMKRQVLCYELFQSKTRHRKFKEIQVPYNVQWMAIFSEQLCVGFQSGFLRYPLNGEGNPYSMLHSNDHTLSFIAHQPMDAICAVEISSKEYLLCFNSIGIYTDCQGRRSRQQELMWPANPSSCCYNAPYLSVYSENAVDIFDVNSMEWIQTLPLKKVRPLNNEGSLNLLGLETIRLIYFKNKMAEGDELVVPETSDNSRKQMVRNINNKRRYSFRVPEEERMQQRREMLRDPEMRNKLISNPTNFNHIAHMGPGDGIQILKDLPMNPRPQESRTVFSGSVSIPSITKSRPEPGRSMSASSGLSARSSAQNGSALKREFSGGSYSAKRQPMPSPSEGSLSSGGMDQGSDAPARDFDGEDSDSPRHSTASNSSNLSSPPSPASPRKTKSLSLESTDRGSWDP
Sequence of ROCK2 (O75116 whole entry, the tested form may be a part): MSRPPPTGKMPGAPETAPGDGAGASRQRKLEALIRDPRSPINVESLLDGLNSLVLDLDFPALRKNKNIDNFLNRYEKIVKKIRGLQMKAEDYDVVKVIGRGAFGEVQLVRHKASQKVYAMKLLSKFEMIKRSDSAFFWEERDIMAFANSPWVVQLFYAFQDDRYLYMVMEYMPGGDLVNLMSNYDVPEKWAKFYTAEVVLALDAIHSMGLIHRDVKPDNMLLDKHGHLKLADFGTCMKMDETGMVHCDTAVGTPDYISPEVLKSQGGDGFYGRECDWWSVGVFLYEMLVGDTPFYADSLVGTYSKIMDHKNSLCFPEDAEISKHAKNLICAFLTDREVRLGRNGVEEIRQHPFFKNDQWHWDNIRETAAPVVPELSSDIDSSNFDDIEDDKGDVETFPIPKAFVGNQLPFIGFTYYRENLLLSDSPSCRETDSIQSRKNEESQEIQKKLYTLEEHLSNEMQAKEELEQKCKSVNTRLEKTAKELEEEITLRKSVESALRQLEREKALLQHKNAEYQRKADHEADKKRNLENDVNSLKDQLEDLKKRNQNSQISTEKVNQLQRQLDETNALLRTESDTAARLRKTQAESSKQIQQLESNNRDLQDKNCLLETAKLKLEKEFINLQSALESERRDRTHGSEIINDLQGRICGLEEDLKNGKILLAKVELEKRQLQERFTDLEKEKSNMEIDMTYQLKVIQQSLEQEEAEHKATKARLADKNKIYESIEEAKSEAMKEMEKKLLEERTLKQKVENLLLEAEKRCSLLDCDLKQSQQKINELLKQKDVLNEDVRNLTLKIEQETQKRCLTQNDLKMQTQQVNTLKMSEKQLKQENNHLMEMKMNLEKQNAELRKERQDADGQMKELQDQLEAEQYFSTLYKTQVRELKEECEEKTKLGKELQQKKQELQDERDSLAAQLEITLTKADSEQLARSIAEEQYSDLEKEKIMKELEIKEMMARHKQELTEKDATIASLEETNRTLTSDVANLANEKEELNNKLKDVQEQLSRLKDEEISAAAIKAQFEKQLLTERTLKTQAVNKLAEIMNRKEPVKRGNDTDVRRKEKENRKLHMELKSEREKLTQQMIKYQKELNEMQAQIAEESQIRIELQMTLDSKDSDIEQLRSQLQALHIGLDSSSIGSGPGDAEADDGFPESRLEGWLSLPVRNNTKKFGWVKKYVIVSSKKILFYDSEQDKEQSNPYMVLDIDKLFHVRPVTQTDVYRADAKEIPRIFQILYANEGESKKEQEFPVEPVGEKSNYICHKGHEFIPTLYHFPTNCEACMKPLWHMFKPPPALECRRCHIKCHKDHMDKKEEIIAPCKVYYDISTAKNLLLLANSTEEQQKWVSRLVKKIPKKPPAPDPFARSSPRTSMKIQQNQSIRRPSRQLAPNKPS

Consider `c1csc(-c2c[nH]c3nccc(O[C@@H]4CCCNC4)c23)n1` [Example E212, 2-[4-[[(3R)-3-piperidyl]oxy]-1H-pyrrolo[2,3-b]pyridin-3-yl]thiazole], for which the Ki in assay [1] (setting [8]) amounted to 0.185 nM; in assay [2] it was 29.9 nM; in assay [4] (setting [10]), 7.57 nM; in assay [6] (setting [12]) it was 0.184 nM. Also, the values for the IC50 in assay [3] (setting [9]) and in assay [5] (setting [11]) were 14400 nM and 426 nM, respectively.

Take `c1cc(N2CCC[C@@]3(CCCCN3)C2)c2c(-c3ncsn3)c[nH]c2n1` [Example E116, 3-[4-[(6S)-1,8-diazaspiro[5.5]undecan-8-yl]-1H-pyrrolo[2,3-b]pyridin-3-yl]-1,2,4-thiadiazole]: the Ki in assay [1] (setting [8]) worked out at 0.0122 nM; in assay [2], 85.1 nM; in assay [4] (setting [10]), 39.4 nM; in assay [6] (setting [12]), 0.0124 nM. Also, the IC50 in assay [3] (setting [9]) was over 30000 nM; in assay [5] (setting [11]), 142 nM.

In the case of `c1csc(-c2c[nH]c3nccc(N4CC[C@@]5(CCCN5)C4)c23)n1` [Example E134, 2-[4-[(5S)-1,7-diazaspiro[4.4]nonan-7-yl]-1H-pyrrolo[2,3-b]pyridin-3-yl]thiazole], the Ki in assay [1] turned out to be 0.19 nM; in assay [2] it was 111 nM; in assay [4] it was 30 nM; in assay [6], 0.303 nM. Further, the IC50 is over 30000 nM in assay [3] and 787 nM in assay [5].

As for `c1cc(N2CCC[C@@]3(CCCCN3)C2)c2c(-c3ccsn3)c[nH]c2n1` [Example E120, 3-[4-[(6S)-1,8-diazaspiro[5.5]undecan-8-yl]-1H-pyrrolo[2,3-b]pyridin-3-yl]isothiazole], the Ki in assay [1] (setting [8]) was determined as 0.0049 nM; in assay [2] it was 23.8 nM; in assay [4] (setting [10]) it was 4.73 nM; in assay [6] (setting [12]), 0.0147 nM. Further, the IC50 in assay [3] (setting [9]) came to 15400 nM; in assay [5] (setting [11]) it was 13.3 nM.

On to `c1ncc(-c2c[nH]c3nccc(N4CCC[C@@]5(CCCCN5)C4)c23)cn1` [Example E122, (6S)-8-(3-pyrimidin-5-yl-1H-pyrrolo[2,3-b]pyridin-4-yl)-1,8-diazaspiro[5.5]undecane], for which the Ki in assay [1] (setting [8]) is 0.0284 nM; in assay [2], 196 nM; in assay [4] (setting [10]), 77.7 nM; in assay [6] (setting [12]) it was 0.585 nM. For the same compound, the IC50 in assay [3] (setting [9]) is over 30000 nM; in assay [5] (setting [11]) it was 101 nM.

In the case of `c1ncc(-c2c[nH]c3nccc(N4CC[C@@]5(CCCCN5)C4)c23)cn1` [Example E126, (5S)-2-(3-pyrimidin-5-yl-1H-pyrrolo[2,3-b]pyridin-4-yl)-2,6-diazaspiro[4.5]decane], the Ki in assay [1] (setting [8]) was found to be 0.0413 nM; in assay [4] (setting [10]), 23.1 nM; in assay [7], 68.3 nM; in assay [6] (setting [12]), 0.057 nM. For the same compound, the IC50 in assay [3] (setting [9]) is over 30000 nM; in assay [5] (setting [11]) it was 1270 nM.

`c1cc(-c2c[nH]c3nccc(N4CCC[C@@]5(CCCCN5)C4)c23)cnn1` [Example E174, (6S)-8-(3-pyridazin-4-yl-1H-pyrrolo[2,3-b]pyridin-4-yl)-1,8-diazaspiro[5.5]undecane]: the Ki in assay [2] is 405 nM; in assay [6] (setting [12]), 0.0256 nM. For the same compound, the figures for the IC50 in assay [3] (setting [9]) and in assay [5] (setting [11]) were 2250 nM and 50.9 nM, respectively.

`CCN1CCCC[C@@]12CCCN(c1ccnc3[nH]cc(-c4ccncn4)c13)C2` [Example E207, (6S)-1-ethyl-8-(3-pyrimidin-4-yl-1H-pyrrolo[2,3-b]pyridin-4-yl)-1,8-diazaspiro[5.5]undecane]: the Ki worked out at 0.0275 nM in assay [1] (setting [8]), 8.34 nM in assay [4] (setting [10]), 20 nM in assay [7] and 0.0395 nM in assay [6] (setting [12]). Also, the IC50 in assay [3] (setting [9]) was over 30000 nM; in assay [5] (setting [11]), 170 nM.

Take `CCN1CCCCC12CCCN(c1ccnc3[nH]cc(C#N)c13)C2` (stereo not shown) [Example E211, 4-(1-ethyl-1,8-diazaspiro[5.5]undecan-8-yl)-1H-pyrrolo[2,3-b]pyridine-3-carbonitrile]: the Ki in assay [1] (setting [8]) was 0.631 nM; in assay [4] (setting [10]) it was 34.3 nM; in assay [7], 245 nM; in assay [6] (setting [12]), 0.351 nM. Besides, the figures for the IC50 in assay [3] and in assay [5] were over 30000 nM and 952 nM, respectively.
